Measured values from patent publication US9546129B2, “DTPA prodrugs, compositions thereof, and methods of using the same” (priority 2012, dated 2017).

Tests used:
[1] = Body weights and clinical observations in the rat single dose decorporation study; type: in vivo, Sprague Dawley rat; details: for Mean body weight: in g (unit assumed)
Source text: Each rat was weighed at contamination (Day 0) and the terminal body weight (Day 7) was taken at necropsy.

[2] = Stability of C2E2 in plasma (rat); type: in vitro ADME; details: 37° C., up to two hours
Method: (§1) Prior to the study, 975 μL of plasma (Rat, Beagle and Human) was preheated to 37° C. in Eppendorff tubes and the test compound (C2E2) was prepared in DI water (10 mg/mL). The C2E2 was from Lot 050 obtained using Method 2. To initiate the study, 25 μL of the C2E2 solution was added to the pre-heated plasma and briefly vortexed, to mix. At 0, 15, 30, 60 and 120 minutes a 100 μL sample of plasma was taken, an equal volume of cold acetonitrile was added and mixed to precipitate plasma proteins. Samples were centrifuged at 4° C. and 14,000×g for 10 minutes to remove precipitated proteins, the supernatant was collected and the C2E2 concentration determined by HPLC-CAD. All conditions were repeated in triplicate.
(§2) HPLC Detection Methods: C2E2 analysis was performed on a prominence HPLC (Shimadzu Corporation, Kyoto, Japan) equipped with a Corona Ultra charged […] detector (CAD) (Thermo scientific, Sunnyvale, Calif.). […]
(§3) The gradient is 0.01-34.99 min: 22% B; 35.00-44.99 min: 33% B; 45.00-60.00 min: 38% B. The flow rate is 1.0 mL/min, a Thermo Hypersil ODS column (150 mm 4.6 mm i.d. with 5.0 μm particles) will be used, injection volume will be 10 μL and column oven temperature maintained at 25° C. […] The limit of quantification is 0.35 μg/mL. […]

[3] = Stability of C2E2 in plasma (Beagle); type: in vitro ADME, dog; details: 37° C., up to two hours
Method: as §1, §2, §3

[4] = tested on: polychromatic erythrocytes (PCE) in Sprague-Dawley rat bone marrow; experiment: In vivo micronucleus assay
Method: The objective of this study was to evaluate C2E2 for in vivo clastogenic activity and/or disruption of the mitotic apparatus by detecting micronuclei in polychromatic erythrocytes (PCE) in Sprague-Dawley rat bone marrow.
C2E2 was formulated in cell culture grade water vehicle and the dose volume for all treatment groups was 20 mL/kg. The C2E2 was from Lot 050 obtained using Method 2.
Male rats were administered vehicle control, or 500, 1000, or 2000 mg/kg/day of C2E2 once a day for two days separated by approximately 24 hours. The 2000 mg/kg high dose is the limit dose for this assay recommended by ICH S2(R1) guidance. A positive control group of animals received a single 60 mg/kg cyclophosphamide treatment on the second day of dosing. […] Bone marrow was extracted approximately 24 hours after the last treatment in all groups and at least 2000 PCEs per animal were analyzed for the frequency of micronuclei. Cytotoxicity was assessed by scoring the number of PCEs and normochromatic erythrocytes (NCEs) observed while scoring at least 500 erythrocytes per animal.

[5] = Protonation constants by potentiometric titration; type: physicochemical; details: 5 mM ligand in 0.15 M KCl
Method: The protonation constants for C2E2 were determined by preparing a 5 mM solution of free ligand in 0.15 M KCl. The constants were calculated from three replicates, with each experiment consisting of a titration with acid, followed by a titration with base. After each addition of titrant, a 30 second equilibration time passed before pH measurement with a Seven Easy pH meter and (Ag/AgCl reference) glass electrode (Metler Tolledo). At the end of the titrations, the presence of C2E2 was confirmed by HPLC-CAD. Evaluation of the titration curve for C2E2 (FIG. 31) identified 6 pKa values that correspond with the three tertiary amines and three carboxylic acids. The values were determined by refinement using […] software. The pKa values determined for C2E2 are consistent with DTPA analogues previously investigated for use as MRI contrast agents with two carboxylic acids are functionalized such as DTPA-BMA and DTPA-BBA (Rizkalla, E. N., et al., Inorganic Chemistry, 32, 582-586, (1993) and Geraldes C. F., et al., Journal of the Chemical Society-Dalton Transactions, 327-335 (1995)).

[6] = Single dose toxicology study in rats (UNC-11.240-RMTD); type: in vivo; details: rat

## CCOC(=O)CN(CCN(CCN(CC(=O)O)CC(=O)OCC)CC(=O)O)CC(=O)O [C2E2, 6,9-bis(carboxymethyl)-3-(2-ethoxy-2-oxoethyl)-11-oxo-12-oxa-3,6,9-triazatetradecan-1-oic acid]
[1]; Female, C2E2 200 mg/kg, Fasted
  Mean Percentage Body Weight Change: 0.8 ± 2.2%
[1]; Female, C2E2 200 mg/kg, ad libitum
  Mean Percentage Body Weight Change: 0.0 ± 2.5%
[1]; Female, C2E2 600 mg/kg, Fasted
  Mean Percentage Body Weight Change: −2.3 ± 3.3%
[1]; Female, C2E2 600 mg/kg, ad libitum
  Mean Percentage Body Weight Change: 1.1 ± 1.2%
[1]; Female, C2E2 1000 mg/kg, Fasted
  Mean Percentage Body Weight Change: −5.0 ± 2.9%
[1]; Female, C2E2 1000 mg/kg, ad libitum
  Mean Percentage Body Weight Change: 0.7 ± 2.1%
[1]; Male, C2E2 200 mg/kg, Fasted
  Mean Percentage Body Weight Change: 8.1 ± 8.4%
[1]; Male, C2E2 200 mg/kg, ad libitum
  Mean Percentage Body Weight Change: 10.4 ± 11.0%
[1]; Male, C2E2 600 mg/kg, Fasted
  Mean Percentage Body Weight Change: 12.6 ± 3.1%
[1]; Male, C2E2 600 mg/kg, ad libitum
  Mean Percentage Body Weight Change: 10.1 ± 3.1%
[1]; Male, C2E2 1000 mg/kg, Fasted
  Mean Percentage Body Weight Change: 12.0 ± 4.8%
[1]; Male, C2E2 1000 mg/kg, ad libitum
  Mean Percentage Body Weight Change: 10.6 ± 0.8%
[1]; female rats, C2E2 200 mg/kg, Fasted, Day 0
  Mean body weight: 245.0 ± 11.6
[1]; female rats, C2E2 200 mg/kg, Fasted, Day 7 (terminal)
  Mean body weight: 246.8 ± 9.6
[1]; female rats, C2E2 200 mg/kg, ad libitum, Day 0
  Mean body weight: 276.8 ± 17.3
[1]; female rats, C2E2 200 mg/kg, ad libitum, Day 7 (terminal)
  Mean body weight: 276.5 ± 15.1
[1]; female rats, C2E2 600 mg/kg, Fasted, Day 0
  Mean body weight: 280.5 ± 28.0
[1]; female rats, C2E2 600 mg/kg, Fasted, Day 7 (terminal)
  Mean body weight: 273.5 ± 19.2
[1]; female rats, C2E2 600 mg/kg, ad libitum, Day 0
  Mean body weight: 247.0 ± 13.8
[1]; female rats, C2E2 600 mg/kg, ad libitum, Day 7 (terminal)
  Mean body weight: 249.7 ± 14.5
[1]; female rats, C2E2 1000 mg/kg, Fasted, Day 0
  Mean body weight: 276.3 ± 17.9
[1]; female rats, C2E2 1000 mg/kg, Fasted, Day 7 (terminal)
  Mean body weight: 262.7 ± 23.8
[1]; female rats, C2E2 1000 mg/kg, ad libitum, Day 0
  Mean body weight: 232.5 ± 19.3
[1]; female rats, C2E2 1000 mg/kg, ad libitum, Day 7 (terminal)
  Mean body weight: 234.2 ± 21.4
[1]; male and female rats, 200, 600, 1000 mg/kg single oral dose, 7 days
  Clinical observations: No adverse C2E2 exposure-related clinical observations
[1]; male rats, C2E2 200 mg/kg, Fasted, Day 0
  Mean body weight: 291.3 ± 12.7
[1]; male rats, C2E2 200 mg/kg, Fasted, Day 7 (terminal)
  Mean body weight: 314.2 ± 14.4
[1]; male rats, C2E2 200 mg/kg, ad libitum, Day 0
  Mean body weight: 296.3 ± 9.4
[1]; male rats, C2E2 200 mg/kg, ad libitum, Day 7 (terminal)
  Mean body weight: 326.5 ± 25.7
[1]; male rats, C2E2 600 mg/kg, Fasted, Day 0
  Mean body weight: 275.9 ± 9.7
[1]; male rats, C2E2 600 mg/kg, Fasted, Day 7 (terminal)
  Mean body weight: 310.6 ± 9.1
[1]; male rats, C2E2 600 mg/kg, ad libitum, Day 0
  Mean body weight: 292.8 ± 5.1
[1]; male rats, C2E2 600 mg/kg, ad libitum, Day 7 (terminal)
  Mean body weight: 322.2 ± 6.4
[1]; male rats, C2E2 1000 mg/kg, Fasted, Day 0
  Mean body weight: 270.3 ± 5.8
[1]; male rats, C2E2 1000 mg/kg, Fasted, Day 7 (terminal)
  Mean body weight: 302.8 ± 14.2
[1]; male rats, C2E2 1000 mg/kg, ad libitum, Day 0
  Mean body weight: 290.5 ± 6.6
[1]; male rats, C2E2 1000 mg/kg, ad libitum, Day 7 (terminal)
  Mean body weight: 321.2 ± 6.5
[2]
  Metabolism in plasma (observation): minimal or not detected
[3]
  Metabolism in plasma (observation): minimal or not detected
[4]; 500, 1000, 2000 mg/kg/day x2 days, male rats
  Bone marrow cytotoxicity (PCE:NCE ratios): absence of treatment-related bone marrow cytotoxicity
[4]; 500, 1000, or 2000 mg/kg/day orally once a day for 2 days, male rats
  Induction of micronuclei in rat bone marrow: negative
[4]; one 2000 mg/kg/day animal, Day 2
  Clinical signs: audible respiration and hypoactive behavior
[5]
  PKa2: 4.68 ± 0.02
  pKa1: 9.40
  pKa3: 3.52 ± 0.03
  pKa4: 1.87 ± 0.05
  pKa5: 1.76
  pKa6: 1.45
[6]
  Maximum tolerated single dose: 2000 mg/kg
